Test results reported in patent US20060014740A1 (priority 2003, published 2006).
Where a name gives a salt, the structure may show the parent alone. Read-outs that look alike come from different tables or passages of the source.

Tests used:
[1] = tested on: RH7777 rat hepatoma cells; experiment: SRB cytotoxicity assay, RH7777 control cell line; assay type: cell-based; conditions: for IC50: control cell line, 96 h, read-out: IC50 RH7777
Experimental: (§1) For in vitro cytotoxicity screening, 1000 to 5000 cells were plated into each well of 96-well plates depending on growth rate, and exposed to different concentrations of a test compound for 96 h in three to five replicates. All the compounds were dissolved in dimethyl sulfoxide at 5 to 20 mM, and diluted to desired concentrations in complete culture medium. Cell numbers at the end of the drug treatment were measured by the SRB assay (Gududuru et al., “Synthesis and Biological Evaluation of Novel Cytotoxic Phospholipids for Prostate Cancer,” Bioorg. Med. Chem. Lett. 14:4919-4923 (2004); Rubinstein et at., “Comparison of in vitro Anticancer-Drug-Screening Data Generated with a Tetrazolium Assay Versus a Protein Assay Against a Diverse Panel of Human Tumor Cell Lines,” J. Naatl, Cancer Inst. 82:1113-1118 (1990), each of which is hereby incorporated by reference in its entirety). Briefly, the cells were fixed with 10% of trichloroacetic acid, stained with 0.4% SRB, and the absorbances at 540 nm was measured using a plate reader (DYNEX Technologies, Chantilly, Va.).
(§2) The antiproliferative activity of all the synthesized compounds was evaluated against five human prostate cancer cell lines and in RH7777 cells (negative control) using the sulforhodamine B (SRB) assay (see description in Example 5 above).
(§3) The chosen cell lines represent different basal levels of active AKT and LPL receptor expression (discussed later). Cells were exposed to a wide range of concentrations (0 to 100 μM) of the indicated compound for 96 h. Cell numbers at the end of treatment were measured using the sulforhodamine B (SRB) assay^5.
(§4) Cells were exposed to a wide range of concentrations (0 to 100 μM) of the particular compound for 96 h in 96 well plates. Cells were fixed with 10% trichloroacetic acid, washed five times with water. The plates were air dried overnight and fixed cells were stained with SRB solution. The cellular protein-bound SRB was measured at 540 nm using a plate reader. Cell numbers at the end of the treatment were measured.
as §4, with “96-well” for “96 well”, “calculated as a percentage of untreated control.” for “measured.”

[2] = tested on: DU-145 human prostate cancer cells; experiment: SRB cytotoxicity assay, DU-145; assay type: cell-based; conditions: 96 h
Experimental: as §1, §2, §3, §4
as §4, with “96-well” for “96 well”, “calculated as a percentage of untreated control.” for “measured.”

[3] = tested on: PC-3 human prostate cancer cells; experiment: SRB cytotoxicity assay, PC-3; assay type: cell-based; conditions: 96 h, read-out: IC50 PC-3
Experimental: as §1, §2, §3, §4
as §4, with “96-well” for “96 well”, “calculated as a percentage of untreated control.” for “measured.”

[4] = tested on: LNCaP human prostate cancer cells; experiment: SRB cytotoxicity assay, LNCaP; assay type: cell-based; conditions: 96 h, read-out: IC50 LNCaP
Experimental: as §1, §2, §3, §4
as §4, with “96-well” for “96 well”, “calculated as a percentage of untreated control.” for “measured.”

[5] = tested on: PPC-1 human prostate cancer cells; experiment: SRB cytotoxicity assay, PPC-1; assay type: cell-based; conditions: for IC50: Homo sapiens, PPC-1
Experimental: (§5) Dr. Mitchell Steiner at University of Tennessee Health Science Center, kindly provided PPG-1 and TSU-PrI cells.
as §1, §2, §3, §4
as §4, with “96-well” for “96 well”, “calculated as a percentage of untreated control.” for “measured.”

[6] = tested on: TSU-Pr1 human prostate cancer cells; experiment: SRB cytotoxicity assay, TSU-Pr1; assay type: cell-based; conditions: 96 h, read-out: IC50 TSU-Pr1
Experimental: as §5, §1, §2, §3, §4
as §4, with “96-well” for “96 well”, “calculated as a percentage of untreated control.” for “measured.”

[7] = tested on: human breast cancer cell line (MCF-7); experiment: SRB cytotoxicity assay, MCF-7; assay type: cell-based; conditions: Homo sapiens, MCF7; Table 8; breast cancer cell line; read-out: IC50 MCF-7
Experimental: as §1
(§6) In vitro cytotoxicity assay was performed by the same sulforhodamine B (SRB) assay (described above). The compounds shown in Table 8 below where tested for activity against the breast cancer and ovarian cancer cell lines.
as §3, §4

[8] = tested on: CaOv-3 human ovarian cancer cell line; experiment: SRB cytotoxicity assay, CaOv-3; assay type: cell-based; conditions: Table 8
Experimental: as §1, §6

[9] = tested on: OVCAR-3 human ovarian cancer cell line; experiment: SRB cytotoxicity assay, OVCAR-3; assay type: cell-based; conditions: Table 8
Experimental: as §1, §6

[10] = tested on: SKOv-3 human ovarian cancer cell line; experiment: SRB cytotoxicity assay, SKOv-3; assay type: cell-based; conditions: Table 8
Experimental: as §1, §6

[11] = Rattus norvegicus, RH7777, Table 3
[12] = Homo sapiens, DU-145, read-out: IC50 DU-145, Table 3
[13] = Table 3, 96 h, read-out: IC50 PPC-1
[14] = Rattus norvegicus, RH7777, Table 4
[15] = Homo sapiens, DU-145, read-out: IC50 DU-145, Table 4
[16] = Table 4, 96 h, read-out: IC50 PPC-1

Compound	melting point	IC50 [1, 11]	IC50 [2, 12]	IC50 ([3]; Homo sapiens, Table 3)	IC50 ([4]; Homo sapiens, LNCaP, Table 3)	IC50 [5, 13]	IC50 ([6]; Homo sapiens, TSU-Pr1, Table 3)	IC50 [7]	IC50 [1, 14]	IC50 [2, 15]	IC50 ([3]; Homo sapiens, Table 4)	IC50 ([4]; Homo sapiens, LNCaP, Table 4)	IC50 [5, 16]	IC50 ([6]; Homo sapiens, TSU-Pr1, Table 4)	also measured
CCCCCCCCCCCCCCCCCCNC(=O)[C@@H]1CSC(c2ccc(N(C)C)cc2)N1 (mixture of isomers) [Compound 13, (2RS, 4R)-2-(4-Dimethylamino-phenyl)-thiazolidine-4-carboxylic acid octadecylamide]	75 °C	> 20 µM	5.3 µM	6 µM	1.6 µM	1.1 µM	3 µM	13.5 µM							
Cl.O=C(O)[C@@H]1CSC(c2ccoc2)N1 (mixture of isomers) [Compound 12-HCI, (2RS, 4R)-2-Furan-3-yl-thiazolidine-4-carboxylic acid Hydrochloride]		10.4 µM	6.6 µM	8.1 µM	1.7 µM	1.1 µM	4.2 µM								Fold less selective against RH7777 cell line than compound 5 [1]: 3 fold; IC50 ([8]; Homo sapiens, Caov-3): 7.7 µM; IC50 ([9]; Homo sapiens, OVCAR-3): 2.3 µM; IC50 ([10]; Homo sapiens, SK-OV-3): 5.4 µM
CCCCCCCCCCCCCCCCCCNC(=O)[C@@H]1CSC(c2ccc([N+](=O)[O-])cc2)N1 (mixture of isomers) [Compound 21, (2RS, 4R)-2-(4-Nitro-phenyl)-thiazolidine-4-carboxylic acid octadecylamide]	115 °C							16.3 µM	~20 µM	15.3 µM	~20 µM	8.4 µM	15.3 µM	15.9 µM	
CCCCCCCCCCCCCCCCCCNC(=O)[C@@H]1CSC(c2ccc(Br)cc2)N1 (mixture of isomers) [Compound 20, (2RS, 4R)-2-(4-Bromo-phenyl)-thiazolidine-4-carboxylic acid octadecylamide]	81 °C							16.6 µM	> 20 µM	13.8 µM	17.3 µM	5.1 µM	3.7 µM	18.3 µM	
CCCCCCCCCCCCCCCCCCNC(=O)[C@@H]1CSC(c2ccc(OC)c(OC)c2)N1 (mixture of isomers) [Compound 16-HCI, (2RS, 4R)-2-(3,4-Dimethoxy-phenyl)-thiazolidine-4-carboxylic add octadecylamide Hydrochloride]															IC50 ([1]; Table 3): 10.3 µM; IC50 ([2]; read-out: IC50 DU-145, Table 3): 4.5 µM; IC50 ([3]; Table 3): 5.2 µM; IC50 ([4]; Table 3): 0.85 µM; IC50 ([6]; Table 3): 2.4 µM; IC50 [8]: 5.5 µM; IC50 [9]: 1.2 µM; IC50 [10]: 3.6 µM
CCCCCCCCCCCCCCCCCCNC(=O)[C@@H]1CSC(c2ccc(NC(C)=O)cc2)N1.Cl (mixture of isomers) [Compound 18-HCI, (2RS, 4R)-2-(4-Acetylamino-phenyl)-thiazolidine-4-carboxylic acid octadecylamide Hydrochloride]									21.1 µM	3.1 µM	5.6 µM	1.3 µM	0.55 µM	0.94 µM	Selectivity in PPC-1 cells compared to RH7777 cells [5]: 38 fold; IC50 ([5]; read-out: IC50 in PPC-1 cells): 0.55 µM; IC50 ([8]; Homo sapiens, Caov-3): 4.9 µM; IC50 ([9]; Homo sapiens, OVCAR-3): 2 µM; IC50 ([10]; Homo sapiens, SK-OV-3): 2.6 µM
CCCCCCCCCCCCCCCCCCNC(=O)[C@@H]1CSC(c2cc(OC)c(OC)c(OC)c2)N1 (mixture of isomers) [Compound 17-HCI, (2RS, 4R)-2-(3,4,5-Trimethoxy-phenyl)-thiazolidine-4-carboxylic acid octadecylamide Hydrochloride]		11.4 µM	3.9 µM	4 µM	0.82 µM		2.4 µM								IC50 ([8]; Homo sapiens, Caov-3): 4.4 µM; IC50 ([9]; Homo sapiens, OVCAR-3): 1.4 µM; IC50 ([10]; Homo sapiens, SK-OV-3): 2.7 µM
CCCCCCCCCCCCCCCCCCNC(=O)[C@@H]1CSC(c2ccc(F)c(Br)c2)N1 (mixture of isomers) [Compound 25, (2RS, 4R)-2-(3-Bromo-4-fluoro-phenyl)-thiazolidine-4-carboxylic acid octadecylamide]	100 °C							15.3 µM	~20 µM	11.3 µM	13.5 µM	3 µM	4.7 µM	14 µM	
CCCCCCCCCCCCCCCCCCNC(=O)[C@@H]1CSC(C2CCCCC2)N1 (mixture of isomers) [Compound 8, (2RS, 4R)-2-Cyclohexylthiazolidine-4-carboxylic acid octadecylamide]	60 °C	> 20 µM	> 20 µM	> 20 µM	12.8 µM	9.3 µM	> 20 µM	~20 µM							

The next lines start with results.

melting point	Compound	IC50 [1, 11]	IC50 [2, 12]	IC50 ([3]; Homo sapiens, Table 3)	IC50 ([4]; Homo sapiens, LNCaP, Table 3)	IC50 [5, 13]	IC50 ([6]; Homo sapiens, TSU-Pr1, Table 3)	IC50 [7]	IC50 [1, 14]	IC50 [2, 15]	IC50 ([3]; Homo sapiens, Table 4)	IC50 ([4]; Homo sapiens, LNCaP, Table 4)	IC50 [5, 16]	IC50 ([6]; Homo sapiens, TSU-Pr1, Table 4)	also measured
90 °C	CCCCCCCCCCCCCCCCCCNC(=O)[C@@H]1CSC(c2ccccc2)N1C(C)=O (mixture of isomers) [Compound 28, (2RS, 4R)-3-Acetyl-2-phenylthiazolidine-4-carboxylic acid octadecylamide]							16.3 µM	> 20 µM	~20 µM	~20 µM	16.1 µM	12.6 µM	> 20 µM	
120 °C	CCCCCCCCCCCCCCCCCCNC(=O)[C@@H]1CSC(c2ccc(C)cc2)N1 (mixture of isomers) [Compound 26, (2RS, 4R)-2 p-Tolyl-thiazolidine-4-carboxylic acid octadecylamide]							10.3 µM	> 20 µM	10.5 µM	12.8 µM	1.9 µM	1.9 µM	8 µM	
55 °C	CCCCCCCCCCCCCCCCCCNC(=O)[C@@H]1CSC(c2ccccc2)N1S(C)(=O)=O (mixture of isomers) [Compound 29, (2RS,4R)-3-Methanesulfonyl-2-phenylthiazolidine-4-carboxylic acid octadecylamide]							> 20 µM	> 20 µM	> 20 µM	> 20 µM	> 20 µM	> 20 µM	> 20 µM	
94 °C	CCCCCCCCCCCCCCCCCCNC(=O)[C@@H]1CSC(c2cccnc2)N1 (mixture of isomers) [Compound 11, (2RS, 4R)-2-Pyridin-3-yl-thiazolidine-4-carboxylic acid octadecylamide]	10.5 µM	7.5 µM	9.2 µM	3.6 µM	2.9 µM	7.8 µM	9.3 µM							
80 °C	CCCCCCCCCCCCCCCCCCNC(=O)[C@@H]1CSC(Cc2ccccc2)N1 (mixture of isomers) [Compound 9, (2RS, 4R)-2-Benzylthiazolidine-4-carboxylic acid octadecylamide]	> 20 µM	15.3 µM	16.4 µM	4.4 µM	4 µM	11.2 µM	18.7 µM							
